Source: ChEMBL document CHEMBL1201862, “PubChem BioAssay data set” (2004)
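1) Cells in 96-well plates. 2) Compound, 48 h, 5 concentrations. 3) Linear interpolation between surrounding doses. 4) Unreached endpoint = highest concentration. Here, GI50 denotes the concentration required for 50% inhibition of growth.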 Activity calls are given as the source filed them. No stated cut-off is given here; in the data, active = GI50 up to about 1.1 µM and inactive = higher.

How the values were obtained:
Assay in all cases: DTP human tumour cell line panel, 48 h
A549 = test system: A549
ACHN = test system: ACHN
COLO 205 = test system: COLO 205
EKVX = test system: EKVX
HCC 2998 = test system: HCC 2998
HCT-15 = test system: HCT-15
HL-60 = test system: HL-60
IGROV-1 = test system: IGROV-1
NCI-H522 = test system: NCI-H522
OVCAR-3 = test system: OVCAR-3
OVCAR-4 = test system: OVCAR-4
RPMI-8226 = test system: RPMI-8226
SF-295 = test system: SF-295
SK-MEL-28 = test system: SK-MEL-28
SK-MEL-2 = test system: SK-MEL-2
SK-MEL-5 = test system: SK-MEL-5
U-251 = test system: U-251
MDA-N = test system: MDA-N
Hs-578T = test system: Hs-578T

Row | SMILES | GI50 (A549) | GI50 (ACHN) | GI50 (COLO 205) | GI50 (EKVX) | GI50 (HCC 2998) | GI50 (HCT-15) [µM] | GI50 (HL-60) | GI50 (IGROV-1) | GI50 (NCI-H522) | GI50 (OVCAR-3) | GI50 (OVCAR-4) | GI50 (RPMI-8226) | GI50 (SF-295) | GI50 (SK-MEL-28) | GI50 (SK-MEL-2) | GI50 (SK-MEL-5) | GI50 (U-251) | GI50 (MDA-N) | GI50 (Hs-578T)
1 | CCOC(=O)Cc1csc(Nc2ccccc2[N+](=O)[O-])n1 | > 100 µM (inactive) | > 100 µM (inactive) | > 100 µM (inactive) | > 100 µM (inactive) | > 100 µM (inactive) | > 56.6 | > 100 µM (inactive) | > 100 µM (inactive) | > 100 µM (inactive) | > 100 µM (inactive) | > 100 µM (inactive) | > 100 µM (inactive) | > 100 µM (inactive) | > 100 µM (inactive) | > 100 µM (inactive) | > 100 µM (inactive) | > 100 µM (inactive) | – | –
2 | N=C(N)NS(=O)(=O)c1ccc(NC(=O)c2c3ccccc3nc3ccccc23)cc1 | > 100 µM (inactive) | > 100 µM (inactive) | > 100 µM (inactive) | > 100 µM (inactive) | > 100 µM (inactive) | > 100 | – | > 100 µM (inactive) | > 100 µM (inactive) | > 100 µM (inactive) | > 100 µM (inactive) | > 100 µM (inactive) | > 100 µM (inactive) | > 100 µM (inactive) | > 100 µM (inactive) | > 100 µM (inactive) | > 100 µM (inactive) | > 100 µM (inactive) | –
3 | O=[N+]([O-])C(=C1c2ccccc2-c2ccccc21)[N+](=O)[O-] | 38.5 µM (inactive) | 62.8 µM (inactive) | > 100 µM (inactive) | > 100 µM (inactive) | 70.5 µM (inactive) | > 10 | 29.2 µM (inactive) | 61.5 µM (inactive) | 44.1 µM (inactive) | > 100 µM (inactive) | > 100 µM (inactive) | 44 µM (inactive) | > 10 µM (inactive) | > 100 µM (inactive) | > 100 µM (inactive) | – | > 100 µM (inactive) | – | –
4 | Clc1ccccc1-c1nn2c(CCCCCCCCc3nnc4sc(-c5ccccc5Cl)nn34)nnc2s1 | > 100 µM (inactive) | > 100 µM (inactive) | > 100 µM (inactive) | > 100 µM (inactive) | > 100 µM (inactive) | > 100 | – | – | 77.3 µM (inactive) | > 100 µM (inactive) | > 100 µM (inactive) | 54 µM (inactive) | > 100 µM (inactive) | > 100 µM (inactive) | > 100 µM (inactive) | 63.1 µM (inactive) | > 100 µM (inactive) | > 100 µM (inactive) | > 100 µM (inactive)
5 | CCCCn1cnc2c(SC)ncnc21 | > 100 µM (inactive) | > 100 µM (inactive) | > 100 µM (inactive) | 41.7 µM (inactive) | > 100 µM (inactive) | > 100 | – | > 100 µM (inactive) | > 100 µM (inactive) | > 100 µM (inactive) | > 100 µM (inactive) | > 100 µM (inactive) | > 100 µM (inactive) | > 100 µM (inactive) | > 100 µM (inactive) | > 100 µM (inactive) | > 100 µM (inactive) | > 100 µM (inactive) | > 100 µM (inactive)
6 | CCSC1=CC2(O)N(CCc3ccc(OC)c(OC)c3)C(=O)CC2(C(=O)OC)CC1=O (stereo not given) | > 100 µM (inactive) | 29.9 µM (inactive) | 77.6 µM (inactive) | 40.1 µM (inactive) | 18.5 µM (inactive) | 25.8 | 32.7 µM (inactive) | 18.2 µM (inactive) | – | 18.2 µM (inactive) | 35.8 µM (inactive) | 29.4 µM (inactive) | > 100 µM (inactive) | 37.2 µM (inactive) | 21.1 µM (inactive) | 41.2 µM (inactive) | 23.4 µM (inactive) | 31.3 µM (inactive) | –
7 | COc1cc2c(/C=C3/C(=O)Nc4ccccc43)c(Cl)n(Cc3ccc(Cl)cc3)c2cc1C | 0.366 µM (active) | 0.324 µM (active) | 0.256 µM (active) | 1.18 µM (inactive) | 0.134 µM (active) | 0.242 | 0.373 µM (active) | 0.538 µM (active) | 0.343 µM (active) | 0.207 µM (active) | 0.632 µM (active) | 0.27 µM (active) | 0.333 µM (active) | 0.386 µM (active) | 1.16 µM (inactive) | 0.384 µM (active) | 0.307 µM (active) | – | 0.401 µM (active)
8 | O=[N+]([O-])/C(C(Cl)=C(Cl)Cl)=C(\Nc1ccccc1)n1nnc2ccccc21 | > 100 µM (inactive) | > 100 µM (inactive) | 27 µM (inactive) | > 100 µM (inactive) | > 100 µM (inactive) | > 100 | – | – | – | 48.1 µM (inactive) | 17.6 µM (inactive) | 21.6 µM (inactive) | 44.7 µM (inactive) | 32.7 µM (inactive) | 27.2 µM (inactive) | – | 29.9 µM (inactive) | 54.8 µM (inactive) | 20.6 µM (inactive)
